According to patent US8304410B2, “Pyrrole compounds as inhibitors of mycobacteria, synthesis thereof and intermediates thereto” (priority 2007, dated 2012):
Converted amounts (≈) assume the structure as drawn. “And” between values parts separate entries of the source, which are not always exact repeats. Identical values can stand only once. Like-named read-outs stand apart in the source and are kept apart here.

Tests used:
[1] = test system: M. tuberculosis 103471; assay: Antimycobacterial activity, twofold agar dilution MIC; assay type: cell-based; settings: for M. tuberculosis 103471 MIC: Middlebrook 7H11 agar; for MIC: Mycobacterium tuberculosis, 103471, Middlebrook 7H11 agar
Description: (§1) Compounds 3a-h were preliminarily assayed against two freshly isolated clinical strains, M. fortuitum CA10 and M. tuberculosis B814, according to the dilution method in agar (Hawkins et al., 1991).
(§2) Growth media were Mueller-Hinton (Difco) containing 10% of OADC (oleic acid, albumine and dextrose complex) for M. fortuitum and Middlebrook 7H11 agar (Difco) with 10% of OADC for M. tuberculosis. Substances were tested at the single dose of 100 μg/mL. The active compounds were then assayed for inhibitory activity against a variety of mycobacterium strains in Middlebrok 7H11 agar by a standard twofold agar dilution method. The mycobacterium species used for biological tests were M. tuberculosis […], M. tuberculosis H37Rv, M. tuberculosis INH-R ATCC, M. tuberculosis RMP-R ATCC and, among atypical mycobacteria, M. smegmatis 103599, M. marinum 6423 and M. avium 103317 (from the Institute Pasteur collection). Plates were incubated at 37° C. for 3 or 28 days. BM212, INH, SM and RIF were used as reference compounds. After cultivation, MICs were read as minimal concentrations of drugs completely inhibiting visible growth of mycobacteria.

[2] = test system: M. avium 103317; assay: Antimycobacterial activity, agar dilution MIC; assay type: cell-based
[3] = test system: M. marinum 6423; assay: Antimycobacterial activity, agar dilution MIC; assay type: cell-based
[4] = test system: M. smegmatis 103599; assay: Antimycobacterial activity, agar dilution MIC; assay type: cell-based
[5] = test system: intracellular M. tuberculosis; assay: Inhibitory activity on intramacrophagic mycobacteria (J774.A1 murine macrophages); assay type: cell-based; settings: after 6 days of treatment
[6] = in vitro; settings: African green monkey
[7] = test system: M. tuberculosis H37Rv; assay: Antimycobacterial activity, twofold agar dilution MIC; assay type: cell-based; settings: Middlebrook 7H11 agar; for MIC: Mycobacterium tuberculosis, H37RV
Description: as §1, §2

[8] = test system: atypical mycobacteria; assay: Antimycobacterial activity toward atypical mycobacteria; assay type: cell-based; settings: M. avium, M. marinum, M. smegmatis together
Description: as §2

[9] = test system: Vero cells; settings: MTT after 72 h
[10] = Mycobacterium avium, 103317; Table 7 head prints strain 103471; read-out: M. avium 103471 MIC
[11] = Mycobacterium avium, 103317; read-out: M. avium 103317 MIC
[12] = Mycobacterium marinum, 6423; read-out: M. marinum 6423 MIC
[13] = Mycolicibacterium smegmatis, 103599; read-out: M. smegmatis 103599 MIC
[14] = Table 7 head prints strain 103471

SMILES | M. tuberculosis 103471 MIC [1] | MIC [1] [µg/mL] | MIC [2, 10] [µg/mL] | MIC [2, 11] [µg/mL] | MIC [3, 12] [µg/mL] | MIC [4, 13] [µg/mL] | CC50 [6] [µg/mL] | MIC [7] [µg/mL] | M. tuberculosis H37Rv MIC [7] [µg/mL] | M. avium 103471 MIC [2, 14] [µg/mL] | CC50 VERO cells [9] [µg/mL] | also measured
Cc1c(CN2CCN(C)CC2)cc(-c2ccc(Cl)cc2)n1-c1ccc(Cl)cc1 [BM 212, 1-{[1,5-bis(4-chlorophenyl)-2-methyl-1H-pyrrol-3-yl]methyl}-4-methylpiperazine] | 0.7 µg/mL | 0.7 (≈ 1.69 µM) | 0.4 (≈ 0.965 µM) | 0.4 (≈ 0.965 µM) | 100 (≈ 241 µM) | 25 (≈ 60.3 µM) | 4 (≈ 9.65 µM) |  |  |  |  | % of growth reduction respect to untreated controls, intracellular M. tuberculosis ([5]; concentration 0.125 μg/ml): 0%; % of growth reduction respect to untreated controls, intracellular M. tuberculosis ([5]; concentration 0.25 μg/ml): 29.41%; % of growth reduction respect to untreated controls, intracellular M. tuberculosis ([5]; concentration 0.5 μg/ml): 32.35%; % of growth reduction respect to untreated controls, intracellular M. tuberculosis ([5]; concentration 1 μg/ml): 51.76%
CSc1ccc(-c2cc(CN3CCSCC3)c(C)n2-c2ccc(F)cc2)cc1 [Compound 3a, N-(4-fluorophenyl)-2-methyl-3-thiomorpholinomethyl-5-(4-methylsulfanylphenyl)pyrrole] | 0.125 µg/mL and <0.125 µg/mL | < 0.125 | 8 (≈ 19.4 µM) | 8 (≈ 19.4 µM) | 8 (≈ 19.4 µM) | 16 (≈ 38.8 µM) | > 128 | 0.125 (≈ 0.303 µM) |  |  |  | % of growth reduction respect to untreated controls, intracellular M. tuberculosis ([5]; concentration 0.125 μg/ml): 96.12%; % of growth reduction respect to untreated controls, intracellular M. tuberculosis ([5]; concentration 0.25 μg/ml): 99.02%; % of growth reduction respect to untreated controls, intracellular M. tuberculosis ([5]; concentration 0.5 μg/ml): 99.72%; % of growth reduction respect to untreated controls, intracellular M. tuberculosis ([5]; concentration 1 μg/ml): 99.81%; activity toward atypical mycobacteria (MIC range) [8]: 8 to 16 µg/mL
CSc1ccc(-c2cc(CN3CCSCC3)c(C)n2-c2ccc(C)cc2)cc1 [Compound 3b] | 0.25 µg/mL |  |  |  |  |  |  |  | 0.25 | 16 | 18.40 (≈ 45 µM) | 
CCc1ccc(-n2c(-c3ccc(SC)cc3)cc(CN3CCSCC3)c2C)cc1 [Compound 3c] | 0.25 µg/mL |  |  |  |  |  |  |  | 0.25 | >16 | 17.18 (≈ 40.6 µM) | 
CCCc1ccc(-n2c(-c3ccc(SC)cc3)cc(CN3CCSCC3)c2C)cc1 [Compound 3d] | 0.125 µg/mL |  |  |  |  |  |  |  | 0.5 | 8 | 25.25 (≈ 57.8 µM) | 
CSc1ccc(-c2cc(CN3CCSCC3)c(C)n2-c2ccc(C(C)C)cc2)cc1 [Compound 3e] | 0.125 µg/mL |  |  |  |  |  |  |  | 0.5 | 8 | 37.58 (≈ 86.1 µM) | 
CSc1ccc(-c2cc(CN3CCN(C)CC3)c(C)n2-c2ccc(F)cc2)cc1 [Compound 3f] | 2 µg/mL |  |  |  |  |  |  |  | 2 | 4 | 9.33 (≈ 22.8 µM) | 
CSc1ccc(-c2cc(CN3CCCCC3)c(C)n2-c2ccc(F)cc2)cc1 [Compound 3g] | 8 µg/mL |  |  |  |  |  |  |  |  |  |  | 
CSc1ccc(-c2cc(CN3CCOCC3)c(C)n2-c2ccc(F)cc2)cc1 [Compound 3h] | 0.25 µg/mL |  |  |  |  |  |  |  | 0.5 | 16 | 44.34 (≈ 112 µM) | 
NNC(=O)c1ccncc1 [Isoniazid, INH, Isoniazid, reference compound] |  | 0.125 (≈ 0.911 µM) |  |  |  |  | 32 (≈ 233 µM) | 0.25 (≈ 1.82 µM) |  |  |  | MIC ([2]; Mycobacterium avium, 103317, read-out: M. avium 103317 MIC): 32 µg/mL (≈ 233 µM); MIC ([2]; Mycobacterium avium, 103317, read-out: M. avium 103471 MIC): 32 µg/mL (≈ 233 µM); MIC ([3]; Mycobacterium marinum, 6423, read-out: M. marinum 6423 MIC): 16 µg/mL (≈ 117 µM); MIC ([4]; Mycolicibacterium smegmatis, 103599, read-out: M. smegmatis 103599 MIC): 64 µg/mL (≈ 467 µM)
CO[C@H]1/C=C/O[C@@]2(C)Oc3c(C)c(O)c4c(O)c(c(/C=N/N5CCN(C)CC5)c(O)c4c3C2=O)NC(=O)/C(C)=C\C=C\[C@H](C)[C@H](O)[C@@H](C)[C@@H](O)[C@@H](C)[C@H](OC(C)=O)[C@@H]1C [Rifampicin, RIF, Rifampicin] |  | 0.25 (≈ 0.304 µM) | 0.3 (≈ 0.365 µM) | 0.3 (≈ 0.365 µM) | 0.6 (≈ 0.729 µM) | 32 (≈ 38.9 µM) | > 64 | 0.8 (≈ 0.972 µM) |  |  |  | % of growth reduction respect to untreated controls, intracellular M. tuberculosis ([5]; concentration 0.125 μg/ml): 96.59%; % of growth reduction respect to untreated controls, intracellular M. tuberculosis ([5]; concentration 0.25 μg/ml): 99.83%; % of growth reduction respect to untreated controls, intracellular M. tuberculosis ([5]; concentration 0.5 μg/ml): 99.93%; % of growth reduction respect to untreated controls, intracellular M. tuberculosis ([5]; concentration 1 μg/ml): 99.97%
[H]/N=C(/N)N[C@H]1[C@H](O)[C@@H](O)[C@H](O[C@@H]2O[C@@H](C)[C@](O)(C=O)[C@H]2O[C@@H]2O[C@@H](CO)[C@H](O)[C@@H](O)[C@@H]2NC)[C@@H](N/C(N)=N\[H])[C@@H]1O [Streptomycin, SM, Streptomycin, reference compound] | 0.3 µg/mL | 0.3 (≈ 0.516 µM) | 8 (≈ 13.8 µM) | 8 (≈ 13.8 µM) | 32 (≈ 55 µM) | 8 (≈ 13.8 µM) | 64 (≈ 110 µM) | 0.5 (≈ 0.86 µM) |  |  |  | 
